Patent US11214540B2, “Compositions for treating neurodegenerative diseases” (COGNITION THERAPEUTICS, INC., priority 2017, dated 2022)

Experiment: log P
Type: physicochemical
Settings: not given
Text: The term “log P” refers to the partition coefficient of a compound. The partition coefficient is the ratio of concentrations of un-ionized compound in each of two solution phases, for example, octanol and water. To measure the partition coefficient of ionizable solute compounds, the pH of the aqueous phase is adjusted such that the predominant form of the compound is un-ionized. The logarithm of the ratio of concentrations of the un-ionized solute compound in the solvents is called log P. The log P is a measure of lipophilicity. For example, log Poct/wat=log([solute]octanol/[solute]un-ionized,water).
Combined Results for particular compounds described herein, with respect to log P, membrane trafficking (uM), sigma-2 receptor affinity, sigma-1 receptor affinity microsomal stability in mouse liver microsomes (MLM) (t1/2, min), t1/2 normalized to CT)10914 and in vitro toxicity potassium channel hERG (IC50, nM) are provided in Table 1: […]

| log P | Compound |
| --- | --- |
| 4.15 | C[C@@H]1CCN(CCC(C)(C)c2ccc(F)cc2)C1 [Compound 323] |
| 4.41 | CCOC(=O)C1CCN(CCC(C)(C)c2ccc(Cl)cc2)CC1 [Compound 287] |
| 2.49 | CC(C)(CCN1CC[C@@H](O)C1)c1ccccc1 [Compound 301] |
| 4.28 | CC(C)(CCN1CCC(C2CCOCC2)CC1)c1ccccc1 [Compound 313] |
| 3.95 | CCOC(=O)C1CCN(CCC(C)(C)c2ccc(F)cc2)CC1 [Compound 322] |
| 5.07 | COCCCC1CCN(CCC(C)(C)c2ccc(Cl)cc2)CC1 [Compound 324] |
| 3.48 | COC(=O)[C@@H]1CCCN1CCC(C)(C)c1ccccc1 [Compound 293] |
| 3.1 | COc1cc(CCC(C)(C)N2Cc3cccc(C(=O)N4CCN(C(=O)OCCOC(C)=O)CC4)c3C2)ccc1O [Compound 305] |
| 4.85 | COc1cc(CCC(C)(C)N2Cc3cccc(C(=O)N4CCN(C(=O)C(Cc5ccccc5)N(C)C)CC4)c3C2)ccc1O (stereo not shown) [Compound 271] |
| 4.47 | COCCCC1CCN(CCC(C)(C)c2ccccc2)CC1 [Compound 325] |
| 5.13 | CC(C)=C[C@@H](CC(C)(C)c1ccc(C(F)(F)F)cc1)N1CCC(C)(O)CC1 [Compound 266] |
| 5.81 | CC(C)(CCN1CCC(C)(c2ccccc2)CC1)c1ccccc1 [Compound 297] |
| 3.24 | COc1cc(CCC(C)(C)N2Cc3cccc(C(=O)N4CCN(C(=O)[C@@H]5CCCN5C)CC4)c3C2)ccc1O [Compound 274] |
| 4.26 | COC[C@H]1CCCN1CCC(C)(C)c1ccc(Cl)cc1 [Compound 298] |
| 5.37 | CCOC(=O)C1CCN(C(C=C(C)C)CC(C)(C)c2ccc(F)cc2)CC1 (stereo not shown) [Compound 267] |
| 6.11 | CCOC(=O)C1CCN(C(C=C(C)C)CC(C)(C)c2ccc(C(F)(F)F)cc2)CC1 (stereo not shown) [Compound 286] |
| 4.61 | COCCCC1CCN(CCC(C)(C)c2ccc(F)cc2)CC1 [Compound 321] |
| 2.47 | COc1cc(CCC(C)(C)N2Cc3cccc(C(=O)N4CCN(C(=O)[C@@H]5CCCN5C(C)=O)CC4)c3C2)ccc1O [Compound 282] |

The remaining lines, values behind:

| Compound | log P |
| --- | --- |
| COc1ccc(C(C)(C)CC(c2ccccc2)N2CCOCC2)cc1 (stereo not shown) [Compound 118] | 4.64 |
| CC(C)=CC(CC(C)(C)c1ccc(F)cc1)N1CCC(C)(OC(=O)NC(C)C)CC1 (stereo not shown) [Compound 215] | 5.5 |
| COC1CCN(C(C=C(C)C)CC(C)(C)c2ccccc2)CC1 (stereo not shown) [Compound 202] | 4.62 |
| COc1cc(CCC(C)(C)N2Cc3cccc(C(=O)N4CCN(C(=O)CN(C)C)CC4)c3C2)ccc1O [Compound 258] | 2.62 |
| CC(C)=CC(NCC(C)C)C(C)(C)Oc1ccc(Cl)cc1 (stereo not shown) [Compound 177] | 5.42 |
| CCCCC1(O)CCN(C(C=C(C)C)CC(C)(C)c2ccc(F)cc2)CC1 (stereo not shown) [Compound 222] | 5.81 |
| COCCNC(C=C(C)C)C(C)(C)Oc1ccc(Cl)cc1 (stereo not shown) [Compound 175] | 4.13 |
| CC(C)(CCN1CCC(C2CCOCC2)CC1)c1ccc(Cl)cc1 [Compound 193] | 4.89 |
| COC[C@H]1CCCN1C(C=C(C)C)CC(C)(C)c1ccc(C(F)(F)F)cc1 (stereo partly shown) [Compound 247] | 5.95 |
| CC(C)=CC(CC(C)(C)c1ccc(S(C)(=O)=O)cc1)NCC1CCOCC1 (stereo not shown) [Compound 88] | 3.54 |
| CC(C)=CC(CC(C)(C)c1ccc(F)cc1)N1CCN(S(C)(=O)=O)CC1 (stereo not shown) [Compound 154] | 3.37 |
| CC(C)=CC(CC(C)(C)c1ccc(C(F)(F)F)cc1)N1CCN(S(=O)(=O)N(C)C)CC1 (stereo not shown) [Compound 207] | 4.09 |
| CC(C)=CC(NCC(C)C)C(C)(C)Oc1ccc(F)cc1 (stereo not shown) [Compound 176] | 4.96 |
| CCOC(=O)C1CCN(C(C=C(C)C)CC(C)(C)c2ccc(Cl)cc2)CC1 (stereo not shown) [Compound 248] | 5.84 |
| CC(C)=CC(CC(C)(C)c1ccc(Cl)cc1)N1CCN(C(=O)OC(C)(C)C)CC1 (stereo not shown) [Compound 194] | 6.01 |

Same assay, conditions: octanol/water

| Compound | logP |
| --- | --- |
| COC[C@@H]1CCCN1CCC(C)(C)c1ccc(C(F)(F)F)cc1 [Example 317] | 4.53 |
